Laboratory results as given in US20230295234A1, “ANTIMICROBIAL PEPTIDOMIMETICS” (SPEXIS AG, priority 2020, published 2023).
Bridge positions count the residues as written; N and C are the ends. Square brackets hold non-standard residues; d marks the D form. Peptide text beside a SMILES is read from it. Pro(4R-NH2) = N[C@H]1CN[C@H](C(=O)O)C1; Gly(N-2-aminoethyl) = NCCNCC(=O)O; Cha = N[C@@H](CC1CCCCC1)C(=O)O; Gly(N(CH2)3NH2) = NCCCNCC(=O)O; Pen = CC(C)(S)[C@H](N)C(=O)O; dDab = NCC[C@@H](N)C(=O)O; Dab = NCC[C@H](N)C(=O)O

Assays:
[1] = test system: Escherichia coli ATCC 25922; conditions: ATCC 25922
Summary of the method: (§1)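 First, bacterial colonies are suspended in saline and adjusted to 0.5 McFarland. Next, the suspension is diluted into cation-adjusted Mueller-Hinton II broth (approx. 5×10^5 CFU/mL). Finally, it is added to two-fold serially diluted peptide, with polysorbate 80 at 0.002% final.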

[2] = test system: Escherichia coli MCR-1 Af 45; conditions: MCR-1 Af 45
Summary of the method: as §1

[3] = test system: Klebsiella pneumoniae SSI3010; conditions: SSI3010
Summary of the method: as §1

[4] = test system: human red blood cells (hRBC); assay: Hemolysis of human red blood cells; format: cell-based; conditions: red cells of human, 1 h
Summary of the method: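 Percent hemolysis is OD540 of peptide-treated supernatant relative to water-lysed cells. Each peptide was tested at 200 μg/mL against 20% (v/v) washed human erythrocytes. Incubation was 1 h at 37 °C, 300 rpm.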

| SMILES | Escherichia coli ATCC 25922 MIC [1] [µg/mL] | Escherichia coli MCR-1 Af 45 MIC [2] [µg/mL] | Klebsiella pneumoniae SSI3010 MIC [3] [µg/mL] | Hemolysis at 0.2 g/L [4] [%] |
| --- | --- | --- | --- | --- |
| CC[C@H](C)[C@H](NC(=O)CN(CCN)C(=O)[C@@H](NC(=O)CNCCN)C(C)C)C(=O)N[C@H](C(=O)N[C@@H](Cc1ccc(O)cc1)C(=O)N[C@@H]1C(=O)N[C@@H](CC(N)=O)C(=O)N[C@@H](CCCNC(=N)N)C(=O)N[C@@H](CCN)C(=O)N[C@@H]([C@@H](C)O)C(=O)N[C@H](CCN)C(=O)N[C@@H](CCCCN)C(=O)N[C@H](C(=O)N[C@@H](CCN)C(=O)N[C@@H](CCCNC(=N)N)C(=O)N[C@@H](CC2CCCCC2)C(=O)O)CSSC1(C)C)[C@@H](C)CC [Example 21, Ndab-Val-Ndab-Ile-Ile-Tyr-Pen-Asn-Arg-Dab-Thr-^DDab-Lys-Cys-Dab-Arg-Cha] (H-[Gly(N-2-aminoethyl)]V[Gly(N-2-aminoethyl)]IIY[Pen]NR[Dab]T[dDab]KC[Dab]R[Cha]-OH; disulfide 7-14) | 0.0625 | ≤0.03125 | 0.25 | 0 |
| CC[C@H](C)[C@H](NC(=O)CN(CCCN)C(=O)[C@@H](NC(=O)CNCCCN)C(C)C)C(=O)N[C@H](C(=O)N[C@@H](Cc1ccc(O)cc1)C(=O)N[C@@H]1C(=O)N[C@@H](CC(N)=O)C(=O)N[C@@H](CCCNC(=N)N)C(=O)N[C@@H](CCN)C(=O)N[C@@H]([C@@H](C)O)C(=O)N[C@H](CCN)C(=O)N[C@@H](CCCCN)C(=O)N[C@H](C(=O)N[C@@H](CCN)C(=O)N[C@@H](CCCNC(=N)N)C(=O)N[C@@H](CC2CCCCC2)C(=O)O)CSSC1(C)C)[C@@H](C)CC [Example 22, Norn-Val-Norn-Ile-Ile-Tyr-Pen-Asn-Arg-Dab-Thr-^DDab-Lys-Cys-Dab-Arg-Cha] (H-[Gly(N(CH2)3NH2)]V[Gly(N(CH2)3NH2)]IIY[Pen]NR[Dab]T[dDab]KC[Dab]R[Cha]-OH; disulfide 7-14) | 0.0625 | ≤0.03125 | 0.0625 | 0 |
| CC[C@H](C)[C@H](NC(=O)[C@@H](NC(=O)[C@@H]1C[C@@H](N)CN1C(=O)[C@@H](NC(=O)[C@@H]1C[C@@H](N)CN1)C(C)C)[C@@H](C)CC)C(=O)N[C@@H](Cc1ccc(O)cc1)C(=O)N[C@@H]1C(=O)N[C@@H](CC(N)=O)C(=O)N[C@@H](CCCNC(=N)N)C(=O)N[C@@H](CCN)C(=O)N[C@@H]([C@@H](C)O)C(=O)N[C@H](CCN)C(=O)N[C@@H](CCCCN)C(=O)N[C@H](C(=O)N[C@@H](CCC(N)=O)C(=O)N[C@@H](CCCNC(=N)N)C(=O)N[C@@H](Cc2ccc(O)cc2)C(=O)O)CSSC1(C)C [Example 23, Pro((4R)NH2)-Val-Pro((4R)NH2)-Ile-Ile-Tyr-Pen-Asn-Arg-Dab-Thr-^DDab-Lys-Cys-Gln-Arg-Tyr] (H-[Pro(4R-NH2)]V[Pro(4R-NH2)]IIY[Pen]NR[Dab]T[dDab]KCQRY-OH; disulfide 7-14) | 0.25 | 0.25 | 0.25 | 0 |
| CC[C@H](C)[C@H](NC(=O)[C@@H](NC(=O)[C@@H]1CCCN1C(=O)[C@@H](NC(=O)[C@@H]1C[C@@H](N)CN1)C(C)C)[C@@H](C)CC)C(=O)N[C@@H](Cc1ccc(O)cc1)C(=O)N[C@@H]1C(=O)N[C@@H](CC(N)=O)C(=O)N[C@@H](CCCNC(=N)N)C(=O)N[C@@H](CCN)C(=O)N[C@@H]([C@@H](C)O)C(=O)N[C@H](CCN)C(=O)N[C@@H](CCCCN)C(=O)N[C@H](C(=O)N[C@@H](CCN)C(=O)N[C@@H](CCCNC(=N)N)C(=O)N[C@@H](Cc2ccc(O)cc2)C(=O)O)CSSC1(C)C [Example 24, Pro(4R)NH2)-Val-Pro-Ile-Ile-Tyr-Pen-Asn-Arg-Dab-Thr-^DDab-Lys-Cys-Dab-Arg-Tyr] (HELM PEPTIDE1{[N[C@H]1CN[C@H](C(=O)[*:2])C1].V.P.I.I.Y.[Pen].N.R.[Dab].T.[NCC[C@@H](N[*:1])C(=O)[*:2]].K.C.[Dab].R.Y}$PEPTIDE1,PEPTIDE1,7:R3-14:R3$$$V2.0) | 0.125 | 0.125 | 0.25 | 0 |
| CC[C@H](C)[C@H](NC(=O)[C@@H](NC(=O)[C@@H]1C[C@@H](N)CN1C(=O)[C@@H](NC(=O)[C@@H]1CCCN1)C(C)C)[C@@H](C)CC)C(=O)N[C@@H](Cc1ccc(O)cc1)C(=O)N[C@@H]1C(=O)N[C@@H](CC(N)=O)C(=O)N[C@@H](CCCNC(=N)N)C(=O)N[C@@H](CCN)C(=O)N[C@@H]([C@@H](C)O)C(=O)N[C@H](CCN)C(=O)N[C@@H](CCCCN)C(=O)N[C@H](C(=O)N[C@@H](CCN)C(=O)N[C@@H](CCCNC(=N)N)C(=O)N[C@@H](Cc2ccc(O)cc2)C(=O)O)CSSC1(C)C [Example 25, Pro-Val-Pro((4R)NH2)-Ile-Ile-Tyr-Pen-Asn-Arg-Dab-Thr-^DDab-Lys-Cys-Dab-Arg-Tyr] (HELM PEPTIDE1{P.V.[N[C@@H]1C[C@@H](C(=O)[*:2])N([*:1])C1].I.I.Y.[Pen].N.R.[Dab].T.[NCC[C@@H](N[*:1])C(=O)[*:2]].K.C.[Dab].R.Y}$PEPTIDE1,PEPTIDE1,7:R3-14:R3$$$V2.0) | ≤0.03125 | ≤0.03125 | 0.0625 | 0 |
| CC[C@H](C)[C@H](NC(=O)[C@@H](NC(=O)[C@@H]1C[C@@H](N)CN1C(=O)[C@@H](NC(=O)[C@@H]1C[C@@H](N)CN1)C(C)C)[C@@H](C)CC)C(=O)N[C@@H](Cc1ccc(O)cc1)C(=O)N[C@@H]1C(=O)N[C@@H](CC(N)=O)C(=O)N[C@@H](CCCNC(=N)N)C(=O)N[C@@H](CCN)C(=O)N[C@@H]([C@@H](C)O)C(=O)N[C@H](CCN)C(=O)N[C@@H](CCCCN)C(=O)N[C@H](C(=O)N[C@@H](CCN)C(=O)N[C@@H](CCCNC(=N)N)C(=O)N[C@@H](Cc2ccc(O)cc2)C(=O)O)CSSC1(C)C [Example 26, Pro((4R)NH2)-Val-Pro((4R)NH2)-Ile-Ile-Tyr-Pen-Asn-Arg-Dab-Thr-^DDab-Lys-Cys-Dab-Arg-Tyr] (H-[Pro(4R-NH2)]V[Pro(4R-NH2)]IIY[Pen]NR[Dab]T[dDab]KC[Dab]RY-OH; disulfide 7-14) | 0.25 | 0.125 | 0.25 | 0 |
| CC[C@H](C)[C@H](NC(=O)[C@@H](NC(=O)[C@@H]1CCCN1C(=O)[C@@H](NC(=O)CNCCN)C(C)C)[C@@H](C)CC)C(=O)N[C@@H](Cc1ccc(O)cc1)C(=O)N[C@@H]1C(=O)N[C@@H](CC(N)=O)C(=O)N[C@@H](CCCNC(=N)N)C(=O)N[C@@H](CCN)C(=O)N[C@@H]([C@@H](C)O)C(=O)N[C@H](CCN)C(=O)N[C@@H](CCCCN)C(=O)N[C@H](C(=O)N[C@@H](CCN)C(=O)N[C@@H](CCCNC(=N)N)C(=O)N[C@@H](Cc2ccc(O)cc2)C(=O)O)CSSC1(C)C [Example 27, Ndab-Val-Pro-Ile-Ile-Tyr-Pen-Asn-Arg-Dab-Thr-^DDab-Lys-Cys-Dab-Arg-Tyr] (HELM PEPTIDE1{[NCCNCC(=O)[*:2]].V.P.I.I.Y.[Pen].N.R.[Dab].T.[NCC[C@@H](N[*:1])C(=O)[*:2]].K.C.[Dab].R.Y}$PEPTIDE1,PEPTIDE1,7:R3-14:R3$$$V2.0) | 0.0625 | 0.0625 | 0.125 | 0 |
| CC[C@H](C)[C@H](NC(=O)CN(CCN)C(=O)[C@@H](NC(=O)[C@@H]1CCCN1)C(C)C)C(=O)N[C@H](C(=O)N[C@@H](Cc1ccc(O)cc1)C(=O)N[C@@H]1C(=O)N[C@@H](CC(N)=O)C(=O)N[C@@H](CCCNC(=N)N)C(=O)N[C@@H](CCN)C(=O)N[C@@H]([C@@H](C)O)C(=O)N[C@H](CCN)C(=O)N[C@@H](CCCCN)C(=O)N[C@H](C(=O)N[C@@H](CCN)C(=O)N[C@@H](CCCNC(=N)N)C(=O)N[C@@H](Cc2ccc(O)cc2)C(=O)O)CSSC1(C)C)[C@@H](C)CC [Example 28, Pro-Val-Ndab-Ile-Ile-Tyr-Pen-Asn-Arg-Dab-Thr-^DDab-Lys-Cys-Dab-Arg-Tyr] (HELM PEPTIDE1{P.V.[NCCN(CC(=O)[*:2])[*:1]].I.I.Y.[Pen].N.R.[Dab].T.[NCC[C@@H](N[*:1])C(=O)[*:2]].K.C.[Dab].R.Y}$PEPTIDE1,PEPTIDE1,7:R3-14:R3$$$V2.0) | 0.25 | 0.125 | 0.125 | 0 |
| CC[C@H](C)[C@H](NC(=O)CN(CCN)C(=O)[C@@H](NC(=O)CNCCN)C(C)C)C(=O)N[C@H](C(=O)N[C@@H](Cc1ccc(O)cc1)C(=O)N[C@@H]1C(=O)N[C@@H](CC(N)=O)C(=O)N[C@@H](CCCNC(=N)N)C(=O)N[C@@H](CCN)C(=O)N[C@@H]([C@@H](C)O)C(=O)N[C@H](CCN)C(=O)N[C@@H](CCCCN)C(=O)N[C@H](C(=O)N[C@@H](CCN)C(=O)N[C@@H](CCCNC(=N)N)C(=O)N[C@@H](Cc2ccc(O)cc2)C(=O)O)CSSC1(C)C)[C@@H](C)CC [Example 29, Ndab-Val-Ndab-Ile-Ile-Tyr-Pen-Asn-Arg-Dab-Thr-^DDab-Lys-Cys-Dab-Arg-Tyr] (H-[Gly(N-2-aminoethyl)]V[Gly(N-2-aminoethyl)]IIY[Pen]NR[Dab]T[dDab]KC[Dab]RY-OH; disulfide 7-14) | 0.25 | 0.25 | 0.25 | 0 |
